# Assay: Inhibition of I-apamin-sensitive SKCa channel of guinea-pig hepatocytes; 0.14+/-0.01
# Assay type: cell-based, Cavia porcellus
# Conditions: hepatocyte
row,Structure (SMILES),Ki [µM]
1,c1ccc2c(c1)c1cc[n+]2CCCCC[n+]2ccc(c3ccccc32)NCCCCCN1,0.00014

# Assay: Inhibition of apamin-sensitive SKCa channel of guinea-pig hepatocytes
# Assay type: cell-based, Cavia porcellus
# Conditions: hepatocyte
row,Structure (SMILES),IC50 [µM]
1,c1ccc2c(c1)c1cc[n+]2Cc2ccc(cc2)Cc2ccc(cc2)C[n+]2ccc(c3ccccc32)NCCCCCCCCCCN1 [UCL-1530],2.6
2,Nc1c2ccccc2nc2ccccc12 [AMINACRINE],120
3,C=C[C@H]1CN2CC[C@H]1C[C@@H]2[C@@H](O)c1ccnc2ccc(OC)cc12 [QUINIDINE],240
4,C[N+](C)(C)CCCCCCCCCC[N+](C)(C)C [DECAMETHONIUM],450
5,CC(=O)O[C@H]1C[C@@H]2CC[C@@H]3[C@H](CC[C@@]4(C)[C@H]3C[C@H]([N+]3(C)CCCCC3)[C@@H]4OC(C)=O)[C@@]2(C)C[C@@H]1[N+]1(C)CCCCC1 [PANCURONIUM],3.5
6,CC[N+](CC)(CC)CC [TETRYLAMMONIUM],7900
7,Cc1cc(N)c2ccccc2[n+]1CCCCCCCCCC[n+]1c(C)cc(N)c2ccccc21 [DEQUALINIUM CHLORIDE],1.7
8,CCCCOc1cc(C(=O)NCCN(CC)CC)c2ccccc2n1 [DIBUCAINE],470
9,CC[N+](CC)(CC)CCOc1cccc(OCC[N+](CC)(CC)CC)c1OCC[N+](CC)(CC)CC [GALLAMINE],12
10,COc1ccc(CC2c3cc(OC)c(OC)cc3CC[N+]2(C)CCC(=O)OCCCCCOC(=O)CC[N+]2(C)CCc3cc(OC)c(OC)cc3C2Cc2ccc(OC)c(OC)c2)cc1OC (stereo not given),3
11,COc1cc2c3cc1Oc1cc(ccc1O)C[C@@H]1c4c(cc(OC)c(O)c4Oc4ccc(cc4)C[C@@H]3N(C)CC2)CC[N+]1(C)C,3
12,C=C[C@H]1CN2CC[C@H]1C[C@H]2[C@H](O)c1ccnc2ccc(OC)cc12 [QUININE],150
13,O=C1C[C@@H]2OCC=C3CN4CC[C@]56c7ccccc7N1[C@H]5[C@H]2[C@H]3C[C@H]46 [STRYCHNINE],190
14,CCN(CC)CCCC(C)Nc1c2ccc(Cl)cc2nc2ccc(OC)cc12 (stereo not given) [QUINACRINE],73
15,CC(=O)O[C@H]1C[C@@H]2CC[C@@H]3[C@H](CC[C@@]4(C)[C@H]3C[C@H]([N+]3(C)CCCCC3)[C@@H]4OC(C)=O)[C@@]2(C)C[C@@H]1N1CCCCC1 [VECURONIUM],4.5
16,C=C[C@H]1CN2CC[C@H]1C[C@@H]2[C@@H](O)c1ccnc2ccccc12 [CINCHONINE],370
17,COc1cc(NC(C)CCCN)c2ncccc2c1 (stereo not given) [PRIMAQUINE],970
18,C=CC1CN2CCC1CC2[C@H](O)c1ccnc2ccccc12 (stereo not given in full),420
19,C[N+](C)(C)CCCCCC[N+](C)(C)C [HEXAMETHONIUM CHLORIDE],2000
